Experimental data from US20180057505A1, “BICYCLIC HETEROARYL COMPOUNDS USEFUL AS INHIBITORS OF THE PAR-2 SIGNALING PATHWAY” (VERTEX PHARMACEUTICALS INCORPORATED, priority 2015, published 2018).

Legend:
Assay type in all cases: cell-based
[1] = test system: Thrombin-stimulated Ca2+ response in HT-29 cells; assay: Ca FLIPR TETRA assay, ANTAGONIST mode, activator 1 U/mL Thrombin; details: for IC50: HT-29 cells, activator 1 U/mL Thrombin
Description: (§1) Protocol for Testing PAR2 Compounds in ANTAGONIST Mode Using the Ca FLIPR^TETRA Assay (384 Well).
(§2) 23000 HT-29 cells (ATCC# HTB-38) were plated in 384-well black, transparent-flat bottom plates and incubated in 25 uL of 1% FBS/McCoy's media ON at 37° C. under an atmosphere of 5% CO2. The following day, 25 uL FLIPR calcium 5 Molecular Devices assay reagent (Cat: R-8186) was added. Plates were incubated at 37° C. and r. t. for 45 min and 15 min, respectively. Compounds dilutions were prepared in 100% DMSO using a Biomek FX and diluted 20-fold in HBSS and then 5.5 uL was added directly to the cells by the FLIPR^TETRA (10× dilution) using FLIPR Tetra Pipette tips, black, non-sterile, 384 Molecular Devices (Cat: 9000-0764).
(§3) A first read was performed to determine whether the test compounds on their own can activate Ca^2+ responses. The cells were incubated with the compounds for 30 min at r. t. and then read in ANTAGONIST mode in the same plate by stimulating with 6.2 uL of a fixed concentration of the activator: final concentrations 8 μM SLIGKV, 1 U/mL Thrombin, 3.1 U/mL trypsin, or 0.6 μM UTP.

[2] = test system: UTP-stimulated Ca2+ response in HT-29 cells; assay: Ca FLIPR TETRA assay, ANTAGONIST mode, activator 0.6 μM UTP; details: for IC50 / inhibition at 50 µM: Homo sapiens; for IC50: HT-29 cells, activator 0.6 μM UTP; for inhibition at 50 µM: HT-29
Description: as §1, §2, §3

PAR2 (HT-29 cells) [3] = target: T1, PAR2 (HT-29 cells) (Homo sapiens, UniProt P55085); assay: Ca FLIPR TETRA assay, ANTAGONIST mode, activator 3.1 U/mL trypsin; details: HT-29 cells, activator 3.1 U/mL trypsin
T1 construct: host or cells: HT-29
T1 sequence (P55085 26-397): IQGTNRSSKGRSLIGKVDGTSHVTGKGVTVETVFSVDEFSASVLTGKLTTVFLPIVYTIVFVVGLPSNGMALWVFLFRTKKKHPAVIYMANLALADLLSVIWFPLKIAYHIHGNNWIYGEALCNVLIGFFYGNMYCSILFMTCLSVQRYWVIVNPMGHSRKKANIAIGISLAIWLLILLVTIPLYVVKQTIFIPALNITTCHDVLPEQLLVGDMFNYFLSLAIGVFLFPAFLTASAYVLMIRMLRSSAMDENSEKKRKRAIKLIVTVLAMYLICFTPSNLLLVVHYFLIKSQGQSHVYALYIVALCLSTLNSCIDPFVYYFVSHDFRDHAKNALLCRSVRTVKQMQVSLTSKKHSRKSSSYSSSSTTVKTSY
Description: as §1, §2, §3

PAR2 (HT-29 cells) [4] = target: T1, PAR2 (HT-29 cells); assay: Ca FLIPR TETRA assay, ANTAGONIST mode, activator 8 μM SLIGKV; details: HT-29 cells, activator 8 μM SLIGKV
Description: as §1, §2, §3

[5] = maximal antagonist concentration per Method (A: 0.1, 1 or 2 μM; B: 50 μM)
[6] = Method A: maximal concentration of antagonist 0.1, 1 or 2 μM

Row | SMILES | IC50 [1] [nM] | UTP, % @ 50 ([2]; @ 50 (μM)) [% @ 50] | IC50 (PAR2 (HT-29 cells) [3]; [5]) [nM] | IC50 (PAR2 (HT-29 cells) [4]; [5]) [nM] | IC50 ([1]; Homo sapiens) [nM] | IC50 [2] [nM] | IC50 (PAR2 (HT-29 cells) [3]; [6]) [nM] | IC50 (PAR2 (HT-29 cells) [4]; [6]) [nM] | inhibition at 50 µM ([2]; @ 50 (μM)) [%] | Thrombin, % @ 50 ([1]; @ 50 (μM)) [% @ 50]
1 | CC(C)c1cc(-c2ccc(F)cc2)nc2cc(C(=O)N3CCN(C(=O)C4CC4(F)F)CC3(C)C)oc12 (single isomer, unassigned) [Example I-76] | > 50000 | 56 | 100 | 33 |  |  |  |  |  | 
2 | CC(CC(=O)N1CCN(C(=O)c2cc3nc(-c4ccc(Cl)c(F)c4)cc(C(C)(C)C)c3o2)C(C)(C)C1)C(=O)O (single isomer, unassigned) [Example I-513] |  |  |  |  | > 2000 | > 2000 | 1.7 | 1.2 |  | 
3 | CC(CC(=O)N1CCN(C(=O)c2cc3nc(-c4ccc(Cl)c(F)c4)cc(C(C)(C)C)c3o2)C(C)(C)C1)C(=O)O (single isomer, unassigned) [Example I-514] | > 2000 |  |  |  |  |  | 1.1 | 1.3 |  | 
4 | CC(C)c1cc(-c2ccc(F)cc2)nc2cc(C(=O)N3CCN(C(=O)C(C)(C)O)CC3(C)C)oc12 [Example I-1] |  |  | 64 | 68 | 19000 | 20000 |  |  |  | 
5 | CC(C)(C)OC(=O)N1CCN(C(=O)c2cc3nc(-c4ccc(F)cc4)cc(Cl)c3o2)C(C)(C)C1 [Example I-2] |  |  | 29 | 22 | > 50000 | > 50000 |  |  |  | 
6 | Cc1cc(-c2ccc(F)cc2)nc2cc(C(=O)N3CCN(C(=O)C(C)(C)O)CC3(C)C)oc12 [Example I-3] |  |  | 810 | 710 | 26000 | 18000 |  |  |  | 
7 | CCc1cc(-c2ccc(F)cc2)nc2cc(C(=O)N3CCN(C(=O)C(C)(C)O)CC3(C)C)oc12 [Example I-4] |  |  | 190 | 210 | 8400 | 12000 |  |  |  | 
8 | CC(C)(O)C(=O)N1CCN(C(=O)c2cc3nc(-c4ccc(F)cc4)cc(C4CC4)c3o2)C(C)(C)C1 [Example I-5] |  |  | 160 | 120 | 11000 | 8800 |  |  |  | 
9 | CC(C)c1cc(-c2ccc(F)cc2)nc2cc(C(=O)N3CCN(C(=O)OC(C)(C)C)CC3(C)C)oc12 [Example I-6] |  |  | 4.2 | 3.2 | > 50000 | 36000 |  |  |  | 
10 | CC(C)c1cc(-c2ccc(F)cc2)nc2cc(C(=O)N3CCNC(=O)C3(C)C)oc12 [Example I-7] |  |  | 20 | 23 | 3100 | 2700 |  |  |  | 
11 | CC(C)c1cc(-c2ccc(F)cc2)nc2cc(C(=O)N3CCN(C(=O)C4(O)CCC4)CC3(C)C)oc12 [Example I-8] |  |  | 28 | 29 | 3600 | 20000 |  |  |  | 
12 | CC(C)c1cc(-c2ccc(F)cc2)nc2cc(C(=O)N3CCN(C(=O)CC#N)CC3(C)C)oc12 [Example I-9] |  |  | 83 | 90 | 9600 | 4500 |  |  |  | 
13 | CC(C)c1cc(-c2ccc(F)cc2)nc2cc(C(=O)N3CCN(C(=O)C4CCCO4)CC3(C)C)oc12 (stereo not drawn) [Example I-10] |  |  | 27 | 23 | 15000 | 16000 |  |  |  | 
14 | CC(C)c1cc(-c2ccc(F)cc2)nc2cc(C(=O)N3CCN(C(=O)c4ccccc4)CC3(C)C)oc12 [Example I-11] |  |  | 3.5 | 2.4 | 1400 |  |  |  | 59 | 
15 | CC(C)c1cc(-c2ccc(F)cc2)nc2cc(C(=O)N3CCN(C(=O)C(O)C(C)C)CC3(C)C)oc12 (stereo not drawn) [Example I-12] |  |  | 8.6 | 8.3 | 8700 | 5800 |  |  |  | 
16 | CC(C)c1cc(-c2ccc(F)cc2)nc2cc(C(=O)N3CCN(C(=O)c4ccno4)CC3(C)C)oc12 [Example I-13] |  |  | 4.5 | 3 | 1000 | 1200 |  |  |  | 
17 | CC(C)c1cc(-c2ccc(F)cc2)nc2cc(C(=O)N3CCN(C(=O)C(C)(C)C)CC3(C)C)oc12 [Example I-14] |  |  | 3 | 2.8 |  |  |  |  | 59 | 57
18 | CC(C)c1cc(-c2ccc(F)cc2)nc2cc(C(=O)N3CCN(C(=O)[C@H](C)O)CC3(C)C)oc12 [Example I-15] |  |  | 190 | 230 | 14000 | 14000 |  |  |  | 

Row | SMILES | IC50 [1] [nM] | UTP, % @ 50 ([2]; @ 50 (μM)) [% @ 50] | IC50 (PAR2 (HT-29 cells) [3]; [5]) [nM] | IC50 (PAR2 (HT-29 cells) [4]; [5]) [nM] | IC50 ([1]; Homo sapiens) [nM] | IC50 [2] [nM] | IC50 (PAR2 (HT-29 cells) [3]; [6]) [nM] | IC50 (PAR2 (HT-29 cells) [4]; [6]) [nM] | inhibition at 50 µM ([2]; @ 50 (μM)) [%] | Thrombin, % @ 50 ([1]; @ 50 (μM)) [% @ 50]
19 | CC(C)c1cc(-c2ccc(F)cc2)nc2cc(C(=O)N3CCN(C(=O)C(C)(C)F)CC3(C)C)oc12 [Example I-16] |  |  | 6.8 | 7.2 | 6900 |  |  |  | 61 | 
20 | COCC(=O)N1CCN(C(=O)c2cc3nc(-c4ccc(F)cc4)cc(C(C)C)c3o2)C(C)(C)C1 [Example I-17] |  |  | 67 | 59 | 14000 | 15000 |  |  |  | 
21 | CC(C)c1cc(-c2ccc(F)cc2)nc2cc(C(=O)N3CCN(C(=O)[C@H](O)CC(C)(C)C)CC3(C)C)oc12 [Example I-18] |  |  | 1.1 | 1.4 | 7900 | 17000 |  |  |  | 
22 | CC(C)c1cc(-c2ccc(F)cc2)nc2cc(C(=O)N3CCN(C(=O)C4(C)CC4)CC3(C)C)oc12 [Example I-19] |  |  | 4.4 | 5.6 | 10000 | 5700 |  |  |  | 
23 | CC#CC(=O)N1CCN(C(=O)c2cc3nc(-c4ccc(F)cc4)cc(C(C)C)c3o2)C(C)(C)C1 [Example I-20] |  |  | 10 | 11 | 7100 | 1500 |  |  |  | 
24 | CC(C)c1cc(-c2ccc(F)cc2)nc2cc(C(=O)N3CCN(C(=O)CC(C)(C)C)CC3(C)C)oc12 [Example I-21] |  |  | 2.6 | 1.4 | > 50000 |  |  |  | 59 | 
25 | CC(C)c1cc(-c2ccc(F)cc2)nc2cc(C(=O)N3CCN(C(=O)C4CC4(C)C)CC3(C)C)oc12 (stereo not drawn) [Example I-22] |  |  | 2 | 2.4 | > 50000 |  |  |  | 64 | 
26 | CC(C)c1cc(-c2ccc(F)cc2)nc2cc(C(=O)N3CCN(C(=O)C4(O)CCOCC4)CC3(C)C)oc12 [Example I-23] |  |  | 71 | 80 | 7800 | 11000 |  |  |  | 
27 | CC(=O)N1CCN(C(=O)c2cc3nc(-c4ccc(F)cc4)cc(C(C)C)c3o2)C(C)(C)C1 [Example I-24] |  |  | 44 | 48 | 8700 | 9900 |  |  |  | 
28 | CC1(c2cc(-c3ccc(F)cc3)nc3cc(C(=O)N4CCNC(=O)C4(C)C)oc23)CC1 [Example I-25] |  |  | 18 | 14 | 4300 | 2700 |  |  |  | 
29 | CC1(c2cc(-c3ccc(F)cc3)nc3cc(C(=O)N4CCN(C(=O)C5(O)CC5)CC4(C)C)oc23)CC1 [Example I-26] |  |  | 8 | 6.1 | 4800 | 7000 |  |  |  | 
30 | CC(C)(O)C(=O)N1CCN(C(=O)c2cc3nc(-c4ccc(F)cc4)cc(C4(C)CC4)c3o2)C(C)(C)C1 [Example I-27] |  |  | 33 | 19 | 6000 | 7400 |  |  |  | 
31 | CC[C@@H](O)C(=O)N1CCN(C(=O)c2cc3nc(-c4ccc(F)cc4)cc(C4(C)CC4)c3o2)C(C)(C)C1 [Example I-28] |  |  | 3.5 | 4.2 | 8800 | 11000 |  |  |  | 
32 | CO[C@H](C)C(=O)N1CCN(C(=O)c2cc3nc(-c4ccc(F)cc4)cc(C4(C)CC4)c3o2)C(C)(C)C1 [Example I-29] |  |  | 32 | 23 | 19000 | 16000 |  |  |  | 
33 | CC(C)(C)c1cc(-c2ccc(Cl)cc2)nc2cc(C(=O)N3CCNC(=O)C3(C)C)oc12 [Example I-157] |  |  | 7.9 | 9.2 |  |  |  |  |  | 
34 | CC(C)(C)c1cc(-c2ccc(Cl)c(F)c2)nc2cc(C(=O)N3CCNC(=O)C3(C)C)oc12 [Example I-176] |  |  | 5 | 4.8 |  |  |  |  |  | 
35 | CC(C)(C)c1cc(-c2ccc(Cl)c(F)c2)nc2cc(C(=O)N3CCN(c4nc(C(=O)O)co4)CC3(C)C)oc12 [Example I-290] |  |  | 6.1 | 3.2 |  |  |  |  |  | 
36 | CC(C)(C)c1cc(-c2ccc(Cl)cc2)nc2cc(C(=O)N3CCN(c4cnccn4)CC3(C)C)oc12 [Example I-368] |  |  |  |  |  |  | 9.5 | 12 |  | 
